Assays:
ghrelin receptor = ghrelin receptor (Homo sapiens, UniProt Q92847); assay: Aequorin functional assay (ghrelin receptor), Example 3; type: cell-based; design: host or cells: CHO-K1 cells co-expressing Gα16 and mitochondrially targeted Aequorin; conditions: antagonist testing vs ghrelin at EC80 (3.7 nM)
Description: The functional activity of compounds of the invention found to bind to the GHS-R1a receptor can be determined using the method described below. (LePoul, E.; et al. Adaptation of aequorin functional assay to high throughput screening. J. Biomol. Screen. 2002, 7, 57-65; Bednarek, M. A.; et al. Structure-function studies on the new growth hormone-releasing peptide ghrelin: minimal sequence of ghrelin necessary for activation of growth hormone secretagogue receptor 1a. J. Med. Chem. 2000, 43, 4370-4376; Palucki, B. L.; et al. Spiro(indoline-3,4′-piperidine) growth hormone secretagogues as ghrelin mimetics. Bioorg. Med. Chem. Lett. 2001, 11, 1955-1957).
Membranes were prepared using AequoScreen™ (EUROSCREEN, Belgium) cell lines expressing the human ghrelin receptor (cell line ES-410-A; receptor accession #60179). This cell line is constructed by transfection of the human ghrelin receptor into CHO-K1 cells co-expressing Gα16 and the mitochondrially targeted Aequorin (Ref #ES-WT-A5). • 1. Ghrelin (reference agonist; Bachem, #H-4864) • 2. Assay buffer: DMEM (Dulbecco's Modified Eagles Medium) containing 0.1% BSA (bovine serum albumin; pH 7.0. • 3. Coelenterazine (Molecular Probes, Leiden, The Netherlands)
Stock solutions of compounds (10 mM in 100% DMSO) were provided frozen on dry ice and stored at −20° C. prior to use. From the stock solution, mother solutions were made at a concentration of 500 μM 20-fold dilution in 26% DMSO. Assay plates were then prepared by appropriate dilution in DMEM medium containing 0.1% BSA. Under these conditions, the maximal final DMSO concentration in the assay was <0.6%.
AequoScreen™ cells were collected from culture plates with Ca^2+ and Mg^2+-free phosphate buffered saline (PBS) supplemented with 5 mM EDTA, pelleted for 2 minutes at 1000×g, re-suspended in DMEM-Ham's F12 containing 0.1% BSA at a density of 5×10^6 cells/ml and incubated overnight at room temperature in the presence of 5 μM coelenterazine. After loading, cells were diluted with assay buffer to a concentration of 5×10^5 cells/ml.
For agonist testing, 50 μl of the cell suspension was mixed with 50 μl of the appropriate concentration of test compound or ghrelin (reference agonist) in 96-well plates (duplicate samples). Ghrelin (reference agonist) is tested at several concentrations concurrently with the test compounds in order to validate the experiment. The emission of light resulting from receptor activation in response to ghrelin or test compounds was recorded using the Hamamatsu FDSS 6000 reader (Hamamatsu Photonics K.K., Japan).
For antagonist testing, an approximate EC80 concentration of ghrelin (i.e. 3.7 nM; 100 μL) was injected onto the cell suspension containing the test compounds (duplicate samples) 15-30 minutes after the end of agonist testing and the consequent emission of light resulting from receptor activation was measured as described in the paragraph above.
Results are expressed as Relative Light Units (RLU). […] For agonist testing, results for each concentration of test compound were expressed as percent activation relative to the signal induced by ghrelin at a concentration equal to the EC80 (i.e. 3.7 nM). EC50, Hill slope and % Emax values are reported.
For antagonist testing, results for each concentration of test compound were expressed as percent inhibition relative to the signal induced by ghrelin at a concentration equal to the EC80.

[1] = target: T1, human ghrelin receptor (hGHS-R1a) (Homo sapiens, UniProt Q92847); assay: Competitive radioligand binding assay (ghrelin receptor), [125I]-ghrelin, GHS-R/HEK 293 membranes; conditions: competition with [125I]-ghrelin
T1 construct: purchased PerkinElmer BioSignal #RBHGHSM, lot#1887; host or cells: HEK-293 cells, stably transfected; membranes
T1 sequence (Q92847 whole entry): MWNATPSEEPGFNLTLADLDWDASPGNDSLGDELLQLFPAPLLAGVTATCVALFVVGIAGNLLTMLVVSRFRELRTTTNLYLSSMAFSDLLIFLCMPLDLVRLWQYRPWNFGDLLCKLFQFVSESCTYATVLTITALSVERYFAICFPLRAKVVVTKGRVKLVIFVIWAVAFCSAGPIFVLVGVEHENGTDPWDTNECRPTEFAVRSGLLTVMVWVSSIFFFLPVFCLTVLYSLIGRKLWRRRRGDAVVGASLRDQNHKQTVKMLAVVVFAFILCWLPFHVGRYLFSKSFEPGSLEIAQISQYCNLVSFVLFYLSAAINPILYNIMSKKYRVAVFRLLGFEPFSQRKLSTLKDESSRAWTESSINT
Method: The competitive binding assay at the human growth hormone secretagogue receptor (HGHS-R1a) was carried out analogously to assays described in the literature. (Bednarek M A et al. Structure-function studies on the new growth hormone-releasing peptide ghrelin: minimal sequence of ghrelin necessary for activation of growth hormone secretagogue receptor 1a; J. Med. Chem. 2000, 43, 4370-4376; Palucki, B. L. et al. Spiro(indoline-3,4′-piperidine) growth hormone secretagogues as ghrelin mimetics; Bioorg. Med. Chem. Lett. […], 11, 1955-1957).
Membranes (GHS-R/HEK 293) were prepared from HEK-293 cells stably transfected with the human ghrelin receptor (hGHS-R1a). These membranes were provided by PerkinElmer BioSignal (#RBHGHSM, lot#1887) and utilized at a quantity of 0.71 μg/assay point. • 1. [^125]-Ghrelin (PerkinElmer, #NEX-388); final concentration: 0.0070-0.0085 nM • 2. […] Multiscreen Harvest plates-GF/C (Millipore, #MAHFC1H60) • 4. Deep-well polypropylene titer plate (Beckman Coulter, #267006) • 5. TopSeal-A (PerkinElmer, #6005185) • 6. Bottom seal (Millipore, #MATAH0P00) • 7. MicroScint-0 (PerkinElmer, #6013611) • 8. Binding Buffer: 25 mM Hepes (pH 7.4), 1 mM CaCl2, 5 mM MgCl2, 2.5 mM EDTA, 0.4% BSA
Competition experiments were performed in a 300 μl filtration assay format. • 1. 220 μL of membranes diluted in binding buffer • 2. 40 μL of compound diluted in binding buffer • 3.
Compounds were provided frozen on dry ice at a stock concentration of 10 mM diluted in 100% DMSO and stored at −80° C. until the day of testing. On the test day, compounds were allowed to thaw at rt overnight and then diluted in assay buffer according to the desired test concentrations. Under these conditions, the maximal final DMSO concentration in the assay was 0.1%.
In deep-well plates, 220 μL of diluted cell membranes (final concentration: 0.71 μg/well) were combined with 40 μL of either binding buffer (total binding, N=5), 1 μM ghrelin (non-specific binding, N=3) or the appropriate concentration of test compound N=2 for each test concentration). […] Plates were sealed with TopSeal-A, vortexed gently and incubated at rt for 30 min. The reaction was arrested by filtering samples through Multiscreen Harvest plates (pre-soaked in 0.5% polyethyleneimine) using a Tomtec Harvester, washed 9 times with 500 μL of cold 50 mM Tris-HCl (pH 7.4, 4° C.), and then plates were air-dried in a fumehood for 30 min. A bottom seal was applied to the plates prior to the addition of 25 μL of MicroScint-0 to each well. Plates were than sealed with TopSeal-A and counted for 30 sec per well on a TopCount Microplate Scintillation and Luminescence Counter (PerkinElmer) using a count delay of 60 sec. Results were expressed as counts per minute (cpm).
Data were analyzed by GraphPad Prism (GraphPad Software, San Diego, Calif.) using a variable slope non-linear regression analysis.
Dmax values were calculated using the following formula: […]
where total and non-specific binding represent the cpm obtained in the absence or presence of 1 μM ghrelin, respectively.

Sequence of ghrelin receptor (Q92847 whole entry): as above

CCC(C)[C@@H]1NCCOc2ccccc2/C=C/CNC(=O)[C@@H](Cc2ccccc2)NC(=O)[C@H](C(C)O)N(C)C1=O (some centres unmarked) [Compound 502]
IC50 (ghrelin receptor): 1 to 100 nM | Ki [1]: 1 to 100 nM
